Assay results published in patent publication US10660877B2 (BRISTOL-MYERS SQUIBB COMPANY, priority 2016, dated 2020).
Where two headings read alike, the source gives them in different places.

Tests used:
human TLR7 = human TLR7 (Homo sapiens (Human), UniProt Q9NYK1); assay: TLR7 inhibition reporter assay (HEK-Blue cells, SEAP reporter, gardiquimod stimulation); format: cell-based
human TLR8 = human TLR8 (Homo sapiens (Human), UniProt Q9NR97); assay: TLR8 inhibition reporter assay (HEK-Blue cells, SEAP reporter, R848 stimulation);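 also: compounds tested from 0.05 nM to 50 µM, 22 h at 37 °C, SEAP measured with HEK-Blue Detection, inhibition relative to agonist plus DMSO versus a known inhibitor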
Sequence of human TLR8 (Q9NR97 27-1041): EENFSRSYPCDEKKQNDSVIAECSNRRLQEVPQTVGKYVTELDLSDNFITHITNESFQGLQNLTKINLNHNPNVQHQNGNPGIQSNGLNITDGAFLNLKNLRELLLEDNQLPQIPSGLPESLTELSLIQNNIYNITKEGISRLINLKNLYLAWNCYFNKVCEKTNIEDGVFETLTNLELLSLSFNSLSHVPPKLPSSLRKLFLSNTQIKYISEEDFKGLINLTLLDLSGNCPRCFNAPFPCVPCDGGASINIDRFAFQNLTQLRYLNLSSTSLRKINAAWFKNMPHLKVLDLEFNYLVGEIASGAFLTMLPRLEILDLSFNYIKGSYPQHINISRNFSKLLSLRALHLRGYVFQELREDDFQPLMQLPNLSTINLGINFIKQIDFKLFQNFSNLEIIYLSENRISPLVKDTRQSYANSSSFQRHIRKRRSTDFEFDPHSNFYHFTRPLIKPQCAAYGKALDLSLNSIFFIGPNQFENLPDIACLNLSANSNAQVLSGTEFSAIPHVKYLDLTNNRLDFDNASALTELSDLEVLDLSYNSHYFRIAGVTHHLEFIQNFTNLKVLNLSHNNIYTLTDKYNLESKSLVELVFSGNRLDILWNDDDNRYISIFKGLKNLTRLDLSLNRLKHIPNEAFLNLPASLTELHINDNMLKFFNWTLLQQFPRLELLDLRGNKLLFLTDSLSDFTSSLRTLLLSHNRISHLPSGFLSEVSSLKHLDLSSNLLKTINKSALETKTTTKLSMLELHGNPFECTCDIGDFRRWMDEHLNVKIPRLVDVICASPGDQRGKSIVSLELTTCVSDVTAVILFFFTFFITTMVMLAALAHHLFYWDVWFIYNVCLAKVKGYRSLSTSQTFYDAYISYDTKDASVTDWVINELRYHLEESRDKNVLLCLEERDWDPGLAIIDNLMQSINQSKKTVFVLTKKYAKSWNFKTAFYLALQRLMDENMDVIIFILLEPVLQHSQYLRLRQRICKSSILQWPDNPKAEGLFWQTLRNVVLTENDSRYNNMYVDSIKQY

human TLR9 = human TLR9 (Homo sapiens (Human), UniProt Q9NR96); assay: TLR9 inhibition reporter assay (HEK-Blue cells, SEAP reporter, ODN2006 stimulation);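 also: compounds tested over 0.05 nM to 50 µM, 22 h incubation, inhibition taken as SEAP signal drop from agonist plus DMSO wells toward a known inhibitor control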
Sequence of human TLR9 (Q9NR96 26-1032): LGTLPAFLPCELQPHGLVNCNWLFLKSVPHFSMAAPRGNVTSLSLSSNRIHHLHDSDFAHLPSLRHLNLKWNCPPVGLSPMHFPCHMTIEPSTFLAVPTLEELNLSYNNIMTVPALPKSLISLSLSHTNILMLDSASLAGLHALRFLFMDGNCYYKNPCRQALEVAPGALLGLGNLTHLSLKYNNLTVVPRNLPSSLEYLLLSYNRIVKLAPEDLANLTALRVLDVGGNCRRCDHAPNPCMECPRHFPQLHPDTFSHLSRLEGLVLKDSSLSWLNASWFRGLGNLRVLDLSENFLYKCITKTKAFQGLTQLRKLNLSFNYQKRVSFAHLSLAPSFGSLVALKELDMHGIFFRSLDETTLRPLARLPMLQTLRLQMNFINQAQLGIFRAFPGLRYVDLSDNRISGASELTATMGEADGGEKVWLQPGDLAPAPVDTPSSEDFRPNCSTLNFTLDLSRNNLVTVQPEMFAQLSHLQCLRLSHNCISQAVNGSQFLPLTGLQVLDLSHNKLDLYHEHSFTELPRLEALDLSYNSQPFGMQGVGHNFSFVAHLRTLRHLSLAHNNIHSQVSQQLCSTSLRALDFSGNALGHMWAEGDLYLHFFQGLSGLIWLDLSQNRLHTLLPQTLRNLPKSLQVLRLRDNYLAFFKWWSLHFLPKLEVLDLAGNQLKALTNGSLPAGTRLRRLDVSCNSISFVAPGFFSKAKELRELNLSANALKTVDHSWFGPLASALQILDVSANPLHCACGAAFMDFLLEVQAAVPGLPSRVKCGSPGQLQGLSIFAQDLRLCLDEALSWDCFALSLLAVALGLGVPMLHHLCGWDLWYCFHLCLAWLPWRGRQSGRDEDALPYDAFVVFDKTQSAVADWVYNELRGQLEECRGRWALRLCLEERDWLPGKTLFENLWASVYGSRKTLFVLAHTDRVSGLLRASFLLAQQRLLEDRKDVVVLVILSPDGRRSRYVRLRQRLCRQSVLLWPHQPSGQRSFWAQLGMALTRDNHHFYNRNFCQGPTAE

[1] = HEK-Blue cells overexpressing human TLR7, gardiquimod 7.5 μM
[2] = read-out: TLR8 IC50, HEK-Blue cells overexpressing human TLR8, R848 15.9 μM
[3] = read-out: TLR9 IC50, HEK-Blue cells overexpressing human TLR9, ODN2006 5 nM
[4] = HEK-Blue cells, gardiquimod 7.5 μM
[5] = read-out: TLR8 IC50, HEK-Blue cells, R848 15.9 μM
[6] = read-out: TLR9 IC50, HEK-Blue cells, ODN2006 5 nM
[7] = TLR8 IC50, HEK-Blue cells overexpressing human TLR8, R848 15.9 μM
[8] = TLR9 IC50, HEK-Blue cells overexpressing human TLR9, ODN2006 5 nM

Sequence of human TLR7 (Q9NYK1 27-1049): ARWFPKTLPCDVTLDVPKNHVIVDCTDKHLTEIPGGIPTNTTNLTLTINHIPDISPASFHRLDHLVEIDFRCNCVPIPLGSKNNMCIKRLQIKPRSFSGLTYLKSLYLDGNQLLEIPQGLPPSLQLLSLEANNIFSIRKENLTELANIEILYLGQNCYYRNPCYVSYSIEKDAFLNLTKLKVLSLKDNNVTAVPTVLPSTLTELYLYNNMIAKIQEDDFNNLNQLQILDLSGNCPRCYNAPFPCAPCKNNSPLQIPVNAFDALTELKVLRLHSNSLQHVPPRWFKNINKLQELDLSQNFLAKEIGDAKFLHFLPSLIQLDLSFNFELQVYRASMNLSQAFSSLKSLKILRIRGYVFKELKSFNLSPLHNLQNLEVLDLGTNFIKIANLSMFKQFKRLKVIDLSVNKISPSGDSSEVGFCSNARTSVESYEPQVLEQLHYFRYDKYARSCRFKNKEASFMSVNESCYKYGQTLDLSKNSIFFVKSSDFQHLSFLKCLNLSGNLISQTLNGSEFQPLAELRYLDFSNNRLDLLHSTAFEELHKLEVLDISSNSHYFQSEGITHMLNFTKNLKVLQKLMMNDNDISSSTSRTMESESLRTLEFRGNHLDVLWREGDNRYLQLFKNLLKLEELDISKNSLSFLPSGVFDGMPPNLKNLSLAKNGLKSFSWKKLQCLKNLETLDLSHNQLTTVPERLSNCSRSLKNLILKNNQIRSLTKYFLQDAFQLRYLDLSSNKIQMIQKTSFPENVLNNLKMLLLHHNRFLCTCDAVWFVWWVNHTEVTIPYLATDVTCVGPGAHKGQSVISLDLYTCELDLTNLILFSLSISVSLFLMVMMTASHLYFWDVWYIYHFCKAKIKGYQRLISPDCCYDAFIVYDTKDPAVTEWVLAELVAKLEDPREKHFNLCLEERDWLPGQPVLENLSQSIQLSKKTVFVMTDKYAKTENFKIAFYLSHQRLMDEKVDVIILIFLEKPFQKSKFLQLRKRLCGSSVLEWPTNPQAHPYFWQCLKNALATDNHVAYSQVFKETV

| Structure (SMILES) | IC50 (human TLR7; [1]) [nM] | IC50 (human TLR8; [2]) [nM] | IC50 (human TLR9; [3]) [nM] | IC50 (human TLR7; [4]) [nM] | IC50 (human TLR8; [5]) [nM] | IC50 (human TLR9; [6]) [nM] | IC50 (human TLR8; [7]) [nM] | IC50 (human TLR9; [8]) [nM] |
| --- | --- | --- | --- | --- | --- | --- | --- | --- |
| Cc1cc(-c2[nH]c3ccc(C4CCN(CC5CCOC5)CC4)cc3c2C(C)C)cc(C)n1 (stereo not drawn) [Example 469, 2-(2,6-dimethylpyridin-4-yl)-3-isopropyl-5-(1-((tetrahydrofuran-3-yl)methyl)piperidin-4-yl)-1H-indole] | 2.1 | 2.9 | 280 |  |  |  |  |  |
| CC(C)c1c(-c2ccncc2)[nH]c2ccc(C3CCN(C(=O)CN(C)C)CC3)cc12 [Example 524, 2-(dimethylamino)-1-(4-(3-isopropyl-2-(pyridin-4-yl)-1H-indol-5-yl)piperidin-1-yl) ethan-1-one] | 33.6 | 29.2 | 2800 |  |  |  |  |  |
| COC[C@H](O)CN1CCC(c2ccc3[nH]c(-c4cc(C)nc(C)c4)c(C(C)C)c3c2)CC1 [Example 852, (R)-1-(4-(2-(2,6-dimethylpyridin-4-yl)-3-isopropyl-1H-indol-5-yl)piperidin-1-yl)-3-methoxypropan-2-ol] |  |  |  | 4.1 | 3.8 | 631 |  |  |
| CCc1c(-c2ccnc(OC)c2)[nH]c2ccc(C3CCN(CCNC)CC3)cc12 [Example 778, 2-(4-(3-ethyl-2-(2-methoxypyridin-4-yl)-1H-indol-5-yl)piperidin-1-yl)-N-methylethan-1-amine] | 330 | 100 | 1940 |  |  |  |  |  |
| Cc1cc(-c2[nH]c3ccc(C4CCN(C(=O)CNC56CC7CC(CC(O)(C7)C5)C6)CC4)cc3c2C(C)C)cc(C)n1 [Example 343, 1-(4-(2-(2,6-dimethylpyridin-4-yl)-3-isopropyl-1H-indol-5-yl)piperidin-1-yl)-2-((3-hydroxyadamantan-1-yl)amino)ethan-1-one] | 9.8 | 20.3 | 685 |  |  |  |  |  |
| Cc1cc(-c2[nH]c3ccc(C4CCN(CC(=O)N5CCOC[C@H]5CO)CC4)cc3c2C(C)C)cc(C)n1 [Example 304, (R)-2-(4-(2-(2,6-dimethylpyridin-4-yl)-3-isopropyl-1H-indol-5-yl)piperidin-1-yl)-1-(3-(hydroxymethyl)morpholino)ethan-1-one] | 10.3 | 42.6 | 441 |  |  |  |  |  |
| Cc1cc(-c2[nH]c3ccc(C4CCN(Cc5ccccn5)CC4)cc3c2C(C)C)cc(C)n1 [Example 431, 2-(2,6-dimethylpyridin-4-yl)-3-isopropyl-5-(1-(pyridin-2-ylmethyl)piperidin-4-yl)-1H-indole] | 8.4 | 6.7 | 457 |  |  |  |  |  |
| Cc1nc(CN2CCC(c3ccc4[nH]c(-c5ccnc(C6CC6)c5)c(C(C)C)c4c3)CC2)c[nH]1 [Example 484, 2-(2-cyclopropylpyridin-4-yl)-3-isopropyl-5-(1-((2-methyl-1H-imidazol-4-yl)methyl)piperidin-4-yl)-1H-indole] | 77.6 | 96.3 | 279 |  |  |  |  |  |
| Cc1cc(-c2[nH]c3ccc(C4CCN(C5CCNCC5F)CC4)cc3c2C(C)C)ccn1 (stereo not drawn) [Example 705, 5-(3′-fluoro-[1,4′-bipiperidin]-4-yl)-3-isopropyl-2-(2-methylpyridin-4-yl)-1H-indole] | 21.9 | 6.2 | 708 |  |  |  |  |  |
| CCc1c(-c2ccnc(-c3nnc[nH]3)c2)[nH]c2ccc(C3CCNCC3)cc12 [Example 66, 2-(2-(4H-1,2,4-triazol-3-yl)pyridin-4-yl)-3-ethyl-5-(piperidin-4-yl)-1H-indole] | 1230 | 159 | 554 |  |  |  |  |  |
| CCCN(CCO)CC(=O)N1CCC(c2ccc3[nH]c(-c4cc(C)nc(C)c4)c(C(C)C)c3c2)CC1 [Example 398, 1-(4-(2-(2,6-dimethylpyridin-4-yl)-3-isopropyl-1H-indol-5-yl)piperidin-1-yl)-2-((2-hydroxyethyl)(propyl)amino)ethan-1-one] | 3.5 | 26 | 771 |  |  |  |  |  |
| Cc1cc(-c2[nH]c3ccc(C4CCN(CC(=O)N5CCC[C@H](O)C5)CC4)cc3c2C(C)C)cc(C)n1 [Example 210, (S)-2-(4-(2-(2,6-dimethylpyridin-4-yl)-3-isopropyl-1H-indol-5-yl)piperidin-1-yl)-1-(3-hydroxypiperidin-1-yl)ethan-1-one] | 2 |  |  |  |  |  | 6.2 | 225 |
| Cc1cc(-c2[nH]c3ccc(C4CCN(C(=O)C5(C(N)=O)CC5)CC4)cc3c2C(C)C)cc(C)n1 [Example 133, 1-(4-(2-(2,6-dimethylpyridin-4-yl)-3-isopropyl-1H-indol-5-yl)piperidine-1-carbonyl)cyclopropane-1-carboxamide] | 12.4 | 61.7 | > 50000 |  |  |  |  |  |
| Cc1cc(-c2[nH]c3ccc(C4CCN(C(C)CF)CC4)cc3c2C(C)C)ccn1 (stereo not drawn) [Example 864, 5-(1-(1-fluoropropan-2-yl)piperidin-4-yl)-3-isopropyl-2-(2-methylpyridin-4-yl)-1H-indole] |  |  |  | 16.7 | 10.7 | 917 |  |  |
| CCN(CC)CC(=O)N1CCC(c2ccc3[nH]c(-c4cc(C)nc(C)c4)c(C(C)C)c3c2)CC1 [Example 99, 2-(diethylamino)-1-(4-(2-(2,6-dimethylpyridin-4-yl)-3-isopropyl-1H-indol-5-yl)piperidin-1-yl)ethan-1-one] | 3.1 | 13 | 497 |  |  |  |  |  |
| Cc1cc(-c2[nH]c3ccc(C4CCN(C(=O)CCN(C)CCO)CC4)cc3c2C(C)C)cc(C)n1 [Example 175, 1-(4-(2-(2,6-dimethylpyridin-4-yl)-3-isopropyl-1H-indol-5-yl)piperidin-1-yl)-3-((2-hydroxyethyl)(methyl)amino)propan-1-one] | 1.5 | 7.1 | 213 |  |  |  |  |  |
| CCc1c(-c2ccnc(C)c2)[nH]c2ccc(C3CCN(C(=O)[C@@H]4CCCCN4)CC3)cc12 [Example 628, (S)-(4-(3-ethyl-2-(2-methylpyridin-4-yl)-1H-indol-5-yl)piperidin-1-yl)(piperidin-2-yl)methanone] | 39.2 |  |  |  |  |  | 18.3 | 363 |
| Cc1cc(-c2[nH]c3ccc(C4CCN(C(=O)CNCCC(C)C)CC4)cc3c2C(C)C)cc(C)n1 [Example 393, 1-(4-(2-(2,6-dimethylpyridin-4-yl)-3-isopropyl-1H-indol-5-yl)piperidin-1-yl)-2-(isopentylamino)ethan-1-one] | 7.9 |  |  |  |  |  | 37.8 | 800 |
| CCC(C)CN(CCO)C(=O)CN1CCC(c2ccc3[nH]c(-c4cc(C)nc(C)c4)c(C(C)C)c3c2)CC1 (stereo not drawn) [Example 297, 2-(4-(2-(2,6-dimethylpyridin-4-yl)-3-isopropyl-1H-indol-5-yl)piperidin-1-yl)-N-(2-hydroxyethyl)-N-(2-methylbutyl)acetamide] | 13.4 | 43.6 | 710 |  |  |  |  |  |
| Cc1cc(-c2[nH]c3ccc(C4CCN(CC(=O)N(C)C)CC4)cc3c2C(C)C)c(F)c(C)n1 [Example 645, 2-(4-(2-(3-fluoro-2,6-dimethylpyridin-4-yl)-3-isopropyl-1H-indol-5-yl)piperidin-1-yl)-N,N-dimethylacetamide] | 1.7 | 5.8 | 7430 |  |  |  |  |  |
| CCCN(CCO)C(=O)CN1CCC(c2ccc3[nH]c(-c4cc(C)nc(C)c4)c(C(C)C)c3c2)CC1 [Example 295, 2-(4-(2-(2,6-dimethylpyridin-4-yl)-3-isopropyl-1H-indol-5-yl)piperidin-1-yl)-N-(2-hydroxyethyl)-N-propylacetamide] | 30 | 142 | 3170 |  |  |  |  |  |
| CCN(CCO)C(=O)CN1CCC(c2ccc3[nH]c(-c4cc(C)nc(C)c4)c(C(C)C)c3c2)CC1 [Example 294, 2-(4-(2-(2,6-dimethylpyridin-4-yl)-3-isopropyl-1H-indol-5-yl)piperidin-1-yl)-N-ethyl-N-(2-hydroxyethyl)acetamide] | 14.1 | 58.3 | 1880 |  |  |  |  |  |
| Cc1cc(-c2[nH]c3ccc(C4CCN(C(=O)C5CCN(Cc6ccccc6)CC5)CC4)cc3c2C(C)C)ccn1 [Example 567, (1-benzylpiperidin-4-yl)(4-(3-isopropyl-2-(2-methylpyridin-4-yl)-1H-indol-5-yl)piperidin-1-yl)methanone] | 26.7 | 22.9 | 876 |  |  |  |  |  |
| Cc1cc(-c2[nH]c3ccc(C4CCN(CC(=O)N(C)[C@H]5CCOC5)CC4)cc3c2C(C)C)cc(C)n1 [Example 307, (S)-2-(4-(2-(2,6-dimethylpyridin-4-yl)-3-isopropyl-1H-indol-5-yl)piperidin-1-yl)-N-methyl-N-(tetrahydrofuran-3-yl)acetamide] | 17.7 | 87.2 | 3680 |  |  |  |  |  |
| Cc1cc(-c2[nH]c3ccc(C4CCN(Cc5ccn[nH]5)CC4)cc3c2C(C)C)c(C)cn1 [Example 681, 5-(1-((1H-pyrazol-5-yl)methyl)piperidin-4-yl)-2-(2,5-dimethylpyridin-4-yl)-3-isopropyl-1H-indole] | 15.5 | 0.6 | 1530 |  |  |  |  |  |
| Cc1cc(-c2[nH]c3ccc(C4CCN(CCCO)CC4)cc3c2C(C)C)cc(C)n1 [Example 311, 3-(4-(2-(2,6-dimethylpyridin-4-yl)-3-isopropyl-1H-indol-5-yl)piperidin-1-yl)propan-1-ol] | 1.8 | 2.5 | 270 |  |  |  |  |  |
| Cc1cc(-c2[nH]c3cc(C(F)(F)F)c(C4CCN(CC5CCNC5)CC4)cc3c2C(C)C)ccn1 (stereo not drawn) [Example 873, 3-isopropyl-2-(2-methylpyridin-4-yl)-5-(1-(pyrrolidin-3-ylmethyl)piperidin-4-yl)-6-(trifluoromethyl)-1H-indole] |  |  |  | 13.5 | 467 | 96 |  |  |
